Counter-ions that a name gives are not always drawn.
Columns and labels:
[1] = test system: HL-60, MV4-11 and OCI-AML3; assay: Cytotoxicity to leukemic cell lines (normalized cell number, 72 h); format: cell-based; settings: 10 μM
Protocol: (§1) All three lines are leukemic cell lines. HL-60 was derived from promyelocytic AML whereas MV 4-11 and OCI-AML3 are representative of AML. Each compound was incubated with the cells for 72 h. The control was DMSO (ie the vehicle used for the compound) for 72 h. Each condition had three replicates.
The dopamine receptor antagonist and phenothiazine-related compound chlorpromazine was also investigated for effects on the AML cell lines HL-60, MV4-11 and OCI-AML3. Testing was performed as set out in Example 1.

[2] = test system: normal HSCs / HSPC (CB lin-); assay: Methylcellulose colony-forming assay, normal HSC/HSPC; format: cell-based, human; settings: for HSPC CFU potential: 24 h treatment before plating, 0.1, 1, 10 μM tested
Protocol: Normal HSCs and progenitors were sourced from either mobilized peripheral blood or umbilical cord blood of health patients.
Patient HSPC and AML samples were treated with compound or DMSO-vehicle (0.1%) for 24 h prior to CFU plating or xenotransplantation studies.
AML patient or CB lin− cells were cultured 24 hours in the presence of compound or DMSO-vehicle (0.1%) control. […] CB lin− cells were plated at 1000 cells/mL in Methocult GF H4434 (Stem Cell Technologies). Colonies were scored after 14 days of culture using standard morphological criteria.

[3] = test system: primary AML cells (AML blast CFU); assay: Methylcellulose blast-CFU assay, primary AML cells; format: cell-based, human; settings: for AML-blast CFU potential / formation: 24 h treatment before plating, salinomycin at 1 μM and 10 μM
From the text: (§2) Due to the bioavailability of dopamine in fetal bovine serum (FBS) (Little et al., 2002), serum-free conditions were employed to assess the role of DRs in AML. […] DR D2-family and D1-family exert opposing actions on intracellular signaling leading to differential biological effects (Self et al., 1996).

[4] = test system: HL-60, OCI-AML2 and OCI-AML3; assay: Cytotoxicity of DR agonists/antagonists against AML cell lines; format: cell-based; settings: 72 h; CLOZ at higher concentrations
Protocol: as §1
A series of dopamine receptor agonists, D3-antagonists, DR1 & 5-antagonists and multi-receptor antagonists were tested for cytotoxicity against three AML cell lines HL-60, OCI-AML2 and OCI-AML3. Testing was performed as set out in Example 1.

[5] = test system: neoplastic hPSCs (v1H9-Oct4-GFP); assay: Flow cytometry of Oct4+ cells in neoplastic hPSC; format: cell-based, human; settings: three concentrations; compared with BMP4 differentiation controls
[6] = test system: neoplastic hPSCs; assay: p53 and p21 staining of neoplastic hPSC; format: cell-based, human; settings: 24 h; compounds at 10 μM
From the text: Antibodies used for immunocytochemistry were the following: Oct3/4 (BD Trunsduction Laboratories, cat#611203), Sox2 (R&D, cat#AF2018). To detect human hematopoietic cells, Pacific Blue−, PE−, APC− or FITC labeled anti-human CD45 was used (BD Biosciences). FITC anti-CD33, PE anti-CD13, FITC anti-CD41a, FITC anti-HLA DR, and PE anti-CD19 antibodies were obtained from BD Pharmingen. PE anti-CD14, PE anti-CD15 and PE anti-GlyA were acquired from Immunotech Beckman Coulter. To determine pluripotency, PE anti-SSEA3 (BD Biosciences) and PE- or AlexaFluor488 anti-Oct4 (BD Biosciences). Rabbit anti-human dopamine receptor antibodies; DRD1 (Cat#324390), DRD2 (Cat#324393), DRD3 (Cat#324402), DRD4 (Cat#324405) and DRD5 (Cat#324408) were sourced from EMD Chemical. Anti-rabbit Alexa-Fluor-488 (Molecular Probes) was used as the secondary antibody. Primary anti-p53 (Cat#2527) and anti-p21 (Cat#2947) rabbit IgG sourced from Cell Signaling Technology were used to stain fixed and permeabilized cells. Anti-rabbit alexa-Fluor-546 (Molecular Probes) was used as the secondary antibody. For breast tumor staining, APC anti-CD44 and PE-CD24 were sourced from BD Pharmingen.

[7] = test system: neoplastic hPSCs; assay: TaqMan Low-Density Array-qPCR of differentiation genes; format: cell-based, human; settings: thioridazine-treated neoplastic hPSCs; >2 fold increase
Protocol: Cells in specific conditions were collected and RNA was extracted by using RNeasy kit (Qiagen), complementary DNA (cDNA) generation by using SuperScript III® cDNA synthesis kit (Invitrogen), pre-amplification and TaqMan® array reaction (Applied Biosystems) were performed according to manufacturer's instructions. The gene expression profile for each treated cell population was analyzed using TaqMan® Stem Cell Pluripotency Array Card on ViiA 7 Real-Time PCR System (Applied Biosystems). Each reaction sample was dispensed into loading wells on the array card and centrifuged twice at 336×g for 1 min each time, sealed, and placed in the thermal cycler. The following cycling conditions were used for all array card applications: 45° C. for 10 min, 94° C. for 10 min, and 40 cycles of 94° C. for 30 s followed by 60° C. for 1 min. Array data were normalized to 18S RNA and GAPDH and comparisons were performed using data analysis 2.0 software (Applied Biosystems).
Rapid accumulation of the cell stress marker p53 (FIG. 10d) and its transcriptional target p21 (FIG. 10e) were used to further distinguish differentiation induction from cellular toxicity.

[8] = test system: HSPCs / HSCs (CB lin-); settings: in vivo
Protocol: (§3) NOD.Cg-Prkdc^scid ll2rg^tm1Wjl/SzJ adult mice (NSG) were sub-lethally irradiated with 315 rads 24 hours prior transplantation. 0.8-1.0×10^7 AML MNCs or 1.5-1.8×10^5 CB lin− hematopoietic cells treated with compound or DMSO-vehicle for 24 h were injected via tail vein (IV). After 6-10 weeks, animals were culled, and the BM and spleen were analyzed for the presence of human cells by flow cytometry (LSRII, BD) and data was analyzed using FlowJo software (Tree Star Inc). For secondary HSPC transplants, equal number of engrafted human cells from CB lin− transplants were injected IV in adult irradiated NSG mice as described for primary transplants.
(§4) To delineate whether the inhibition of AML-blasts detected in vitro was due to the compounds affecting the neoplastic stem cell compartment, xenotransplantation studies (Dick, 2008) that functionally define LSCs and hematopoietic stem cells (HSCs) were conducted (FIG. 12).

[9] = test system: AML LSCs; assay: Xenotransplantation of compound-treated AML cells into NSG mice; format: in vivo, human; settings: 10 μM, cells treated 24 h before transplantation
Protocol: as §3, §4

[10] = test system: AML-OCI2 and AML-OCI3; assay: Volumetric cell counts of AML lines treated with DR antagonists or agonists; format: cell-based, human; settings: 72 h, serum-free conditions
Protocol: The number of AML-OCI2 and AML-OCI3 cells present after 72 h treatment with DR antagonists (FIG. 16b) and agonist (FIG. 16c-d) were counted by measuring the number of events within a fixed volume following the grating strategy defined by forward scatter and side scatter clustering, 7AAD− and Hoechst+.
as §2

[11] = test system: v1O4 cells (v1H9-Oct4-GFP); assay: Library screen on variant neoplastic stem cells (LOP and cell count); format: cell-based, human; settings: for hit: loss of pluripotency and reduction in cell counts: 10 μM or 1 μM, 72 hours, Z-score more than 3 SD
Protocol: Compounds that reduced cell counts below 100 were classified as highly toxic and not considered as useful.
Briefly, v1O4 cells were seeded into Matrigel-coated 96 well plates (5000 cells/well) containing mouse embryonic fibroblast conditioned media (MEFCM) supplemented with 8 ng/mL bFGF, and treated for 72 hours with compounds dissolved in DMSO. The final concentration of each compound used in treatment was either 10 μM or 1 μM (n=3). Control wells were treated with 0.1% DMSO (low control) or 100 ng/ml BMP4 (high control to induce LOP). At the end of 72 hours, cells were fixed, stained with Hoechst and imaged by automated microscopy. GFP intensity and Hoechst signal were quantified as measures of LOP and cell count, respectively, and compounds with a Z-score of more than 3 standard deviations from the mean for reduced cell count and LOP were chosen as hits.

[12] = test system: AML-OCI2 and AML-OCI3; assay: Induction of apoptosis in AML cancer cell lines (normal nuclei); format: cell-based, human
[13] = test system: v1O4 cells versus H9 cells; assay: Dose-response cell counts, v1O4 versus H9 (selective-activity potency ratio); format: cell-based, human; settings: single 10 μM concentration point; selective at other concentrations
Protocol: The first step in the screening process, the primary screen, is shown in FIG. 21, step 1 and is also described in FIG. 17 and Example 13. […] These compounds then undergo a further set of analysis described in FIG. 21, step 2. […] 8- or 10-point dilutions for each compound are tested on variant neoplastic stem cells (V1O4) and normal stem cells (H9 cells) cells to generate dose-response curves. […] Dose response data were fit with a 4-parameter Hill equation to derive EC50, slopes, min and max values using IDBS ActivityBase software. The EC50 values are then used to calculate a selective-activity potency ratio (H9 EC50/v1O4 EC50). […] The efficacy of each compound can also be quantified by analysis if the derived min value from the 4-parameter Hill fit. An alternative metric for selective activity is an efficacy comparison. Selective EFFICACY=H9−FittedMin−v1O4−FittedMin.
Selectivity activity ratios [EC50 (v1O4)/EC50 (H9)] were calculated as discussed in Example 15 for a number of compounds screened using the methods described herein.

[14] = sorted patient AML cells, 24 h treatment

CSc1ccc2c(c1)N(CCC1CCCCN1C)c1ccccc1S2 (racemic) [thioridazine, 10-{2-[(RS)-1-Methylpiperidin-2-yl]ethyl}-2-methylsulfanylphenothiazine]
normalized cell number / toxicity [1]: reduced to almost zero | colony forming potential of normal HSCs ([2]; 10 μM, DMSO control about 100, at least 14 days): about 66 total colonies | HSPC CFU potential [2]: little effect on HSPC CFU potential | number of AML CFU blast colonies ([3]; 10 μM, control about 22, at least 14 days): 1.6 blast colonies | AML-blast CFU potential / formation [3]: reduced AML-blast CFU formation | blast-CFU generation, DR+ subfraction [3, 14]: reduction in blast-CFU generation | blast-CFU generation, DR− subfraction [3, 14]: no reduction | cytotoxicity of AML cell lines [4]: significant effect on cytotoxicity | cell number and levels of Oct4 in neoplastic hPSCs [5]: reduce levels of Oct4 below BMP4 differentiation controls | accumulation of p53 and p21 [6]: no accumulation of p53 or p21 | differentiation-associated genes upregulated [7]: 21 of 50 | HSC self-renewal [8]: did not affect HSC self-renewal | AML LSC capacity (CD45+ CD33+ blast engraftment) [9]: significantly reduce leukemic disease-initiating AML LSCs | number of AML cells [10]: reduced the number of AML cells | hit: loss of pluripotency and reduction in cell counts [11]: identified as a hit | signs of cell stress/death (Hoechst nuclear stain) ([11]; 10 μM, 3-day treatment): less signs of cell stress/death than cells treated with thiostrepton | induction of apoptosis / cell death [12]: exerts its effects on these cell lines through cell death

Br.CCCN(CCC)[C@@H]1CCc2ccc(O)cc2C1 [7OH-DPAT, R(+)-7-Hydroxy-DPAT hydrobromide]
number of AML cells [10]: increased the number of AML cells

Nc1nc2nn[nH]c2c(=O)[nH]1 [8-azaguanine]
selectivity for cancer stem cells at a single concentration point [13]: would have not be considered selective for cancer stem cells

Cn1cc(C2=C(c3cn(CCCSC(=N)N)c4ccccc34)C(=O)NC2=O)c2ccccc21 [31-8220]
selectivity for cancer stem cells at a single concentration point [13]: would have not be considered selective for cancer stem cells

Oc1cc2c(cc1O)[C@@H](c1ccccc1)CNCC2 [SKF38393, (R)-(+)-SKF-38393 hydrochloride]
number of AML cells [10]: significant reduction in AML cell number

CN(C)CCCN1c2ccccc2Sc2ccc(Cl)cc21 [chlorpromazine, Chlorpromazine hydrochloride]
normalized cell number / toxicity [1]: toxic to AML cell lines | cytotoxicity of AML cell lines [4]: significant effect on cytotoxicity | number of AML cells [10]: reduced the number of AML cells | hit: loss of pluripotency and reduction in cell counts [11]: did not have a comparable effect on v1O4 cells

CN1CCN(C2=Nc3cc(Cl)ccc3Nc3ccccc32)CC1 [clozapine, Clozapine]
cytotoxicity of AML cell lines [4]: significant effect on cytotoxicity

COc1cc([C@@H]2c3cc4c(cc3[C@@H](O[C@@H]3O[C@@H]5CO[C@@H](C)O[C@H]5[C@H](O)[C@H]3O)[C@H]3COC(=O)[C@H]23)OCO4)cc(OC)c1O [etoposide]
accumulation of p53 and p21 [6]: high levels of p53 and p21

OCCN1CCN(CCCN2c3ccccc3Sc3ccc(C(F)(F)F)cc32)CC1 [fluphenazine]
hit: loss of pluripotency and reduction in cell counts [11]: identified as hits

OC(c1cc(C(F)(F)F)nc2c(C(F)(F)F)cccc12)C1CCCCN1 (stereo not shown) [mefloquine]
HSPC CFU potential [2]: little effect on HSPC CFU potential | AML-blast CFU potential / formation [3]: reduced AML-blast CFU formation | cell number and levels of Oct4 in neoplastic hPSCs [5]: reductions in cell number and the levels of Oct4 | AML LSC capacity (CD45+ CD33+ blast engraftment) [9]: ineffective in reducing AML LSC capacity

CCCCc1ccc2[nH]c(NC(=O)OC)nc2c1 [parbendazole]
selectivity for cancer stem cells at a single concentration point [13]: would have not be considered selective for cancer stem cells

OCCN1CCN(CCCN2c3ccccc3Sc3ccc(Cl)cc32)CC1 [perphenazine]
hit: loss of pluripotency and reduction in cell counts [11]: identified as hits

CN1CCN(CCCN2c3ccccc3Sc3ccc(Cl)cc32)CC1 [prochlorperazine]
hit: loss of pluripotency and reduction in cell counts [11]: identified as hits

CC[C@@H](C(=O)[C@@H](C)[C@@H](O)[C@H](C)[C@@H]1O[C@@H]([C@@H](CC)C(=O)O)CC[C@@H]1C)[C@H]1O[C@]2(C=C[C@@H](O)[C@]3(CC[C@@](C)([C@H]4CC[C@](O)(CC)[C@H](C)O4)O3)O2)[C@H](C)C[C@@H]1C [salinomycin]
HSPC CFU potential [2]: reduced HSPC CFU potential over all doses tested | AML-blast CFU potential / formation [3]: reduced AML-blast CFU potential

CN1CCN(CCCN2c3ccccc3Sc3ccc(C(F)(F)F)cc32)CC1 [trifluoperazine]
hit: loss of pluripotency and reduction in cell counts [11]: identified as hits

CN(C)CCCN1c2ccccc2Sc2ccc(C(F)(F)F)cc21 [triflupromazine]
hit: loss of pluripotency and reduction in cell counts [11]: identified as hits

BMP4: positive control that induces differentiation / loss of pluripotency, 100 ng/ml
accumulation of p53 and p21 [6]: no accumulation of p53 or p21

Source: US9566282B2, “Methods for identifying and validating selective anti-cancer stem cell agents” (MCMASTER UNIVERSITY, priority 2011, dated 2017)
